In patent US20250171437A1 (Agios Pharmaceuticals,Inc., priority 2022, published 2025):

biological target: T1, human PAH with the R408W mutation (A375 R408W cells) (Homo sapiens, UniProt P00439, R408W); test: Cell Based Phenylalanine Flux Assay; details: A375 R408W cells; 24 hrs with compound, then 20 μM sepiapterin and 800 μM 13C9,15N-Phenylalanine for 4 hours; 13C-Tyrosine by LC-MS; average where tested multiple times
T1 construct: expressed in transfected cells
T1 sequence (P00439 1-452 R408W): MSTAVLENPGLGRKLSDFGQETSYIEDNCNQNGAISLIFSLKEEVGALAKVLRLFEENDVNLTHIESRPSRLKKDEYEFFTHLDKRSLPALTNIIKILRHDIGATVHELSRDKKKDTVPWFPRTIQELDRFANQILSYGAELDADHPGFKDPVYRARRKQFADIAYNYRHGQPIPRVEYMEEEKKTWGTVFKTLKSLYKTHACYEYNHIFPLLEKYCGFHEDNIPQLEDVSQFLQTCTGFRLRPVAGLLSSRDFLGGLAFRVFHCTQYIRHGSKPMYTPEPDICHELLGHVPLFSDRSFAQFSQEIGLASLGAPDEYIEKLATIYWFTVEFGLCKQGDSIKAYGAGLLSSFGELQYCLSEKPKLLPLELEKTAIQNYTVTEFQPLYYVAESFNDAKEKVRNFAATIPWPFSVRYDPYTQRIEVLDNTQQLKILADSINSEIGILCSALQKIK
How it was run: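 A375 cells stably expressing lentiviral human PAH R408W were treated with compounds (10-point 2-fold dilutions, 0.5% DMSO, duplicate) for 24 h at 37 °C. Then 20 μM sepiapterin and 800 μM 13C9,15N-Phe were added for 4 h; media 13C-Tyr was measured by LC-MS to give AC50.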

Structure (SMILES)	AC50
CNc1cn2ncc(C(=O)N3CCc4[nH]cnc4[C@@H]3c3nc4cc(F)ccc4o3)c2cc1Cl [Example 206, (R)-(5-chloro-6-(methylamino)pyrazolo[1,5-a]pyridin-3-yl)(4-(5-fluorobenzo[d]oxazol-2-yl)-6,7-dihydro-1H-imidazo[4,5-c]pyridin-5(4H)-yl)methanone]	1000 to 5000 nM
O=C(c1ocnc1C(F)(F)F)N1CCc2[nH]cnc2[C@H]1c1nc2ccc(Br)cc2o1 [Example 143, (S)-(4-(6-bromobenzo[d]oxazol-2-yl)-6,7-dihydro-1H-imidazo[4,5-c]pyridin-5(4H)-yl)(4-(trifluoromethyl)oxazol-5-yl)methanone]	≤ 500 nM
CC(C)(O)c1nc(Cl)c(C(=O)N2CCc3[nH]cnc3[C@@H]2c2nc3cccc(F)c3o2)o1 [Example 271, (R)-(4-chloro-2-(2-hydroxypropan-2-yl)oxazol-5-yl)(4-(7-fluorobenzo[d]oxazol-2-yl)-6,7-dihydro-1H-imidazo[4,5-c]pyridin-5(4H)-yl)methanone]	1000 to 5000 nM
CC(C)(O)c1nc(Cl)c(C(=O)N2CCc3[nH]cnc3[C@@H]2c2nc3cc(F)ccc3o2)o1 [Example 130, (R)-(4-chloro-2-(2-hydroxypropan-2-yl)oxazol-5-yl)(4-(5-fluorobenzo[d]oxazol-2-yl)-6,7-dihydro-1H-imidazo[4,5-c]pyridin-5(4H)-yl)methanone]	≥ 5000 nM
O=C(c1cnn2cc(N3CCOCC3)c(Cl)cc12)N1CCc2[nH]cnc2[C@@H]1c1nc2cc(F)ccc2o1 [Example 176, (R)-(5-chloro-6-morpholinopyrazolo[1,5-a]pyridin-3-yl)(4-(5-fluorobenzo[d]oxazol-2-yl)-6,7-dihydro-1H-imidazo[4,5-c]pyridin-5(4H)-yl)methanone]	1000 to 5000 nM
Cc1ccc2nc([C@@H]3c4nc[nH]c4CCN3C(=O)c3oc(C(C)(C)O)nc3C)oc2c1 [Example 319, (S)-(2-(2-hydroxypropan-2-yl)-4-methyloxazol-5-yl)(4-(6-methylbenzo[d]oxazol-2-yl)-6,7-dihydro-1H-imidazo[4,5-c]pyridin-5(4H)-yl)methanone]	500 to 1000 nM
CC(C)(O)c1nc(C(F)F)c(C(=O)N2CCc3[nH]cnc3[C@@H]2c2nc3cccc(Cl)c3o2)o1 [Example 424, (R)-(4-(7-chlorobenzo[d]oxazol-2-yl)-6,7-dihydro-1H-imidazo[4,5-c]pyridin-5(4H)-yl)(4-(difluoromethyl)-2-(2-hydroxypropan-2-yl)oxazol-5-yl)methanone]	≤ 500 nM
CC(C)(C)c1ncc(C(=O)N2CCc3[nH]cnc3[C@@H]2c2nc3cc(F)ccc3o2)o1 [Example 22, (R)-(2-(tert-butyl)oxazol-5-yl)(4-(5-fluorobenzo[d]oxazol-2-yl)-6,7-dihydro-1H-imidazo[4,5-c]pyridin-5(4H)-yl)methanone]	1000 to 5000 nM

More lines, now with the values ahead:

AC50	Structure (SMILES)
≤ 500 nM	COc1cccc2oc([C@@H]3c4nc[nH]c4CCN3C(=O)c3nnc(-c4cnn(C)c4)o3)nc12 [Example 626, (S)-(4-(4-methoxybenzo[d]oxazol-2-yl)-6,7-dihydro-1H-imidazo[4,5-c]pyridin-5(4H)-yl)(5-(1-methyl-1H-pyrazol-4-yl)-1,3,4-oxadiazol-2-yl)methanone]
1000 to 5000 nM	COc1cccc2nc([C@H]3c4nc[nH]c4CCN3C(=O)c3ncnn3C)oc12 [Example 776, (R)-(4-(7-methoxybenzo[d]oxazol-2-yl)-6,7-dihydro-1H-imidazo[4,5-c]pyridin-5(4H)-yl)(1-methyl-1H-1,2,4-triazol-5-yl)methanone]
≤ 500 nM	O=C(c1oc(-c2ccccn2)nc1C(F)F)N1CCc2[nH]cnc2[C@H]1c1nc2cccc(F)c2o1 [Example 587, (S)-(4-(difluoromethyl)-2-(pyridin-2-yl)oxazol-5-yl)(4-(7-fluorobenzo[d]oxazol-2-yl)-6,7-dihydro-1H-imidazo[4,5-c]pyridin-5(4H)-yl)methanone]
≤ 500 nM	CN1CCN(c2ccc3c(C(=O)N4CCc5[nH]cnc5[C@H]4c4nc5c(F)cccc5o4)cnn3c2)CC1 [Example 475, (S)-(4-(4-fluorobenzo[d]oxazol-2-yl)-6,7-dihydro-1H-imidazo[4,5-c]pyridin-5(4H)-yl)(6-(4-methylpiperazin-1-yl)pyrazolo[1,5-a]pyridin-3-yl)methanone]
1000 to 5000 nM	COc1cccc2nc([C@H]3c4nc[nH]c4CCN3C(=O)c3ccnn3C)oc12 [Example 750, (R)-(4-(7-methoxybenzo[d]oxazol-2-yl)-6,7-dihydro-1H-imidazo[4,5-c]pyridin-5(4H)-yl)(1-methyl-1H-pyrazol-5-yl)methanone]
≤ 500 nM	O=C(c1nnc(-c2ncccc2F)o1)N1CCc2[nH]cnc2[C@H]1c1nc2ccccc2o1 [Example 833, (S)-(4-(benzo[d]oxazol-2-yl)-6,7-dihydro-1H-imidazo[4,5-c]pyridin-5(4H)-yl)(5-(3-fluoropyridin-2-yl)-1,3,4-oxadiazol-2-yl)methanone]
500 to 1000 nM	COc1cccc2oc([C@H]3c4nc[nH]c4CCN3C(=O)c3ocnc3C(F)F)nc12 [Example 430, (R)-(4-(difluoromethyl)oxazol-5-yl)(4-(4-methoxybenzo[d]oxazol-2-yl)-6,7-dihydro-1H-imidazo[4,5-c]pyridin-5(4H)-yl)methanone]
1000 to 5000 nM	Cn1nccc1C(=O)N1CCc2[nH]cnc2[C@@H]1c1nc2ccccc2o1 [Example 712, (R)-(4-(benzo[d]oxazol-2-yl)-6,7-dihydro-1H-imidazo[4,5-c]pyridin-5(4H)-yl)(1-methyl-1H-pyrazol-5-yl)methanone]
1000 to 5000 nM	Cc1cccc2oc([C@H]3c4nc[nH]c4CCN3C(=O)c3ncnn3C)nc12 [Example 902, (R)-(1-methyl-1H-1,2,4-triazol-5-yl)(4-(4-methylbenzo[d]oxazol-2-yl)-6,7-dihydro-1H-imidazo[4,5-c]pyridin-5(4H)-yl)methanone]
1000 to 5000 nM	Cn1nc(C(F)(F)F)nc1C(=O)N1CCc2[nH]cnc2[C@@H]1c1nc2ccccc2o1 [Example 684, (R)-(4-(benzo[d]oxazol-2-yl)-6,7-dihydro-1H-imidazo[4,5-c]pyridin-5(4H)-yl)(1-methyl-3-(trifluoromethyl)-1H-1,2,4-triazol-5-yl)methanone]
500 to 1000 nM	Cc1ccc2oc([C@H]3c4nc[nH]c4CCN3C(=O)c3oc(-c4cnn(C)c4)nc3C(F)F)nc2c1 [Example 772, (R)-(4-(difluoromethyl)-2-(1-methyl-1H-pyrazol-4-yl)oxazol-5-yl)(4-(5-methylbenzo[d]oxazol-2-yl)-6,7-dihydro-1H-imidazo[4,5-c]pyridin-5(4H)-yl)methanone]
≤ 500 nM	CC(C)n1ncnc1C(=O)N1CCc2[nH]cnc2[C@H]1c1nc2ccccc2o1 [Example 705, (S)-(4-(benzo[d]oxazol-2-yl)-6,7-dihydro-1H-imidazo[4,5-c]pyridin-5(4H)-yl)(1-isopropyl-1H-1,2,4-triazol-5-yl)methanone]
≤ 500 nM	Cn1ccc(-c2nnc(C(=O)N3CCc4[nH]cnc4[C@H]3c3nc4cccc(C(F)(F)F)c4o3)o2)n1 [Example 832, (S)-(5-(1-methyl-1H-pyrazol-3-yl)-1,3,4-oxadiazol-2-yl)(4-(7-(trifluoromethyl)benzo[d]oxazol-2-yl)-6,7-dihydro-1H-imidazo[4,5-c]pyridin-5(4H)-yl)methanone]
500 to 1000 nM	O=C(c1nnc(-c2ccn(C(F)F)n2)o1)N1CCc2[nH]cnc2[C@@H]1c1nc2cccc(C(F)(F)F)c2o1 [Example 853, (R)-(5-(1-(difluoromethyl)-1H-pyrazol-3-yl)-1,3,4-oxadiazol-2-yl)(4-(7-(trifluoromethyl)benzo[d]oxazol-2-yl)-6,7-dihydro-1H-imidazo[4,5-c]pyridin-5(4H)-yl)methanone]
500 to 1000 nM	Cn1cc(-c2nnc(C(=O)N3CCc4[nH]cnc4[C@H]3c3nc4cccc(C(F)(F)F)c4o3)o2)cn1 [Example 830, (S)-(5-(1-methyl-1H-pyrazol-4-yl)-1,3,4-oxadiazol-2-yl)(4-(7-(trifluoromethyl)benzo[d]oxazol-2-yl)-6,7-dihydro-1H-imidazo[4,5-c]pyridin-5(4H)-yl)methanone]

same assay, conditions: A375 cells expressing R408W PAH; 24 hrs with compound, then 20 μM sepiapterin and 800 μM 13C9,15N-Phenylalanine for 4 hours; 13C-Tyrosine by LC-MS; average where tested multiple times

AC50	Structure (SMILES)
1000 to 5000 nM	O=C(c1cnn2cc(OCCn3cccn3)ccc12)N1CCc2[nH]cnc2[C@H]1c1nc2cc(F)ccc2o1 (single isomer, unassigned)
≥ 5000 nM	Nc1cc(C(=O)N2CCc3[nH]cnc3C2c2nc3cc(F)ccc3o2)n(C(F)F)n1 (stereo not drawn)
≥ 5000 nM	CC(C)(O)c1noc(C(=O)N2CCc3[nH]cnc3C2c2nc3ccc(F)cc3o2)n1 (stereo not drawn)
1000 to 5000 nM	Cn1cnnc1C(=O)N1CCc2[nH]cnc2C1c1nc2c(F)cccc2o1 (stereo not drawn)
1000 to 5000 nM	CN(C)Cc1ccc2c(C(=O)N3CCc4[nH]cnc4C3c3nc4cc(F)ccc4o3)cnn2c1 (stereo not drawn)
≥ 5000 nM	CC(C)(O)c1nc(C(=O)N2CCc3[nH]cnc3C2c2nc3cc(F)ccc3o2)no1 (stereo not drawn)
1000 to 5000 nM	N#Cc1ccc2c(C(=O)N3CCc4[nH]cnc4C3c3nc4cc(F)ccc4o3)cnn2c1 (stereo not drawn)
1000 to 5000 nM	COc1cccc2nc(C3c4nc[nH]c4CCN3C(=O)c3nc(C(C)(C)C)nn3C)oc12 (stereo not drawn)
1000 to 5000 nM	Cn1cnnc1C(=O)N1CCc2[nH]cnc2C1c1nc2cccc(F)c2o1 (stereo not drawn)
1000 to 5000 nM	Cc1nc(-c2cnn(C)c2)sc1C(=O)N1CCc2[nH]cnc2C1c1nc2cc(F)ccc2o1 (stereo not drawn)
